# Measurements from publication PMC8378823, “X-ray free-electron laser studies reveal correlated motion during isopenicillin N synthase catalysis” (Science Advances, 2021).
# Molecular target: T1, isopenicillin N synthase (IPNS) (Aspergillus nidulans, UniProt P05326)
# T1 construct: gene ipnA; recombinant wild type (pJB703) from E. coli NM554; S55C form from pCOLD I, N-terminal His6 tag cut with 3C protease, 37,768 Da
# T1 sequence (P05326 1-331): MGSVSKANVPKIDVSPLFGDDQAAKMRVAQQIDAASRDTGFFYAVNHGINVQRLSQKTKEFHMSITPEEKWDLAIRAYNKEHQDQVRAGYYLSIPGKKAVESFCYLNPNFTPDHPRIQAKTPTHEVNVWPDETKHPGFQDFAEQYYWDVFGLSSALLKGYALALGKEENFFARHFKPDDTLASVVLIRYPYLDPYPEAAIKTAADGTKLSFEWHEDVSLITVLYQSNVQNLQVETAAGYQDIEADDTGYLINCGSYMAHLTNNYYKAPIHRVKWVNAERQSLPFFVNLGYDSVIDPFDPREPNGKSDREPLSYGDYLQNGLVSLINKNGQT
# Assay: SFX and cryo synchrotron crystal structure
# Type: binding
# Conditions: Fe complex; formed in crystallo from ACV by about 30 min O2 exposure; SFX 1.60 Å at room temperature
compound,measurement,value
CC1(C)S[C@@H]2[C@H](NC(=O)CCC[C@H](N)C(=O)O)C(=O)N2[C@H]1C(=O)O [isopenicillin N],SFX and cryo synchrotron crystal structure,Composite SFX 2mFo-DFc omit map for IPNS:Fe:IPN obtained by ~30-min O2 exposure
